Entries after “also recorded” stand apart in the source; their conditions may differ. Read-outs that look alike come from different tables or passages of the source.

The values that follow come from US20260347380A1, “MODULATORS OF CD1 PROTEIN BINDING TO T CELL RECEPTORS” (The Brigham and Women's Hospital, Inc., priority 2022, published 2026).

The target in one assay is CD1a (Homo sapiens, UniProt P06126). In words: structure of CD1a-lipid complexes (FIG. 3, FIG. 4; co-crystallization). The note with it: for binding mode to CD1a and effect on approach of T cell receptors: sphingomyelins, FIG. 3. The source says:
Sulfatide sits similarly within CD1a as compared to other lipids, but the sulfatide headgroup alters the protein surface of CD1a and protrudes to the outer surface of CD1a where it can block T cell receptors.
Sulfatides (compounds S1-S10) have the same kinds of CD1a binding lipid tails as the synthetic sphingomyelins, but carry a differing headgroup comprised of sulfate and carbohydrate rather than phosphocholine. […] However, the head group of sulfatide has two proposed mechanisms for blocking TCR contact. […] However, the sulfatide moiety also disrupts a triad of residues on the outer surface of CD1a, which changes the intrinsic conformation of CD1a at the site at which the TCR can bind. These structural data predict that sulfatides could be particularly broad and efficacious blockers of T cell response.

The target in assay [1] is CD1a protein binding to RCS36 T cells (Homo sapiens, UniProt P06126). In words: CD1a tetramer staining of human CD1a autoreactive T cells (block of CD1a protein binding to T cells), flow cytometry, FIG. 5. The note with it: in vitro, human CD1a tetramers. The protocol: Exemplified sphingomyelins block CD1a protein binding to RCS36 T cells. Fluorescent human CD1a tetramers were treated with media (mock) or a sphingomyelin variant synthesized with the indicated fatty chain and tested for staining of human CD1a autoreactive T cells using flow cytometry. In all cases the fatty acyl group is conjugated to a C18:1 sphingosine unit. Thus, the C28:1 fatty acyl group and the C18:1 sphingosine group constitute C46:2 sphingomyelin (compound 10).
CD1a protein binding to RCS36 T cells, sequence (P06126 17-327): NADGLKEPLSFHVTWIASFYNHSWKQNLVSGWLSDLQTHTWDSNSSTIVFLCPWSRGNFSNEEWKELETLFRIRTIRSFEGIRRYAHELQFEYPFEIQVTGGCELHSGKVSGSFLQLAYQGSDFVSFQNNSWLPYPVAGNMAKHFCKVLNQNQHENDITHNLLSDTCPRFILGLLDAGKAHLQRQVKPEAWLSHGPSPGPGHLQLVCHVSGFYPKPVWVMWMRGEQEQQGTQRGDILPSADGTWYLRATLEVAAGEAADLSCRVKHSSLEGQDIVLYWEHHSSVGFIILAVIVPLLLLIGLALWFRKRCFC
CD1a protein binding to RCS36 T cells, sequence (P61769 21-119 partner): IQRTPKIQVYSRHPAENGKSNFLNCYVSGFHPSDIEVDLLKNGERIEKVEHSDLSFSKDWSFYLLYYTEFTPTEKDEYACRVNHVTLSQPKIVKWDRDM
Generally, naturally occurring cellular sphingomyelins within mammalian cells occur as mixtures, and they are most commonly C34-C36 but can range up to C42 in length.
The degree of inhibition for CD1a protein binding to T cells expressing receptors that normally bind to CD1a was tested for the exemplified compounds 1-10 (see FIG. 5). Increased chain length contributed to blockade in all cases, and the non-natural positioning of the second unsaturation in the fatty acyl unit affected blockade. More blockade was seen when the unsaturation was generated in positions more distal to the head group located at positions 15-17 (Δ15, Δ17). […] Accordingly, additional SM blockers include those with increased length of alkyl chains beyond C46, where the unsaturation is moved to more […] positions in the fatty acyl chain and the number of unsaturations in the fatty acid chain is increased. […]

Assay [2] concerns ears of hCD1a and WT mice. In words: MC903-induced type 2 skin inflammation and itch in hCD1a mice (FIG. 11). Format: in vivo, mouse. As to the method:
FIG. 11 show the impact of sphingomyelin application on MC903 type 2 inflammation and clinical itch. The ears of hCD1a and WT mice were topically treated with 1 nmol MC903/EtOH on days 0, 2 and 5. 20 μg/20 μl of SM 46:2, SM 42:2, SM 34:1 and vehicle were applied on the ear tissue on days-2, 0, 2 and 4. (A) Ear thickness, and (B) itching frequency were evaluated at endpoint of day 6. Each data plot represents an individual ear. Plots show mean±SEM. Statistics were calculated using one-way ANOVA with Tukey post-test. […], **** P<0.001, NS=nonsignificant.
In order to investigate whether SM had efficacy in a different inflammatory skin model, we utilized the MC903-induced model of type 2 cytokine inflammation which has features of dermatitis in humans and prominently causes itch, a major treatable skin symptom. The MC903-induced type 2 inflammation is amplified in the presence of hCD1a (Hardman et al Nat Comms 2022). […] These mice normally express CD1d and then were engineered to express CD1a. […] As well as having potential therapeutic applications in diseases involving type 2 inflammation in humans, the data support utility in treating broader diseases where pruritus and itch are symptoms. CD1a has not been previously linked with pruritus and so this represents a new area of biology and opens new areas for therapeutic application.

For assay [3], the system named is Skin T cell and draining lymph node T cell. In words: flow cytometry of ear skin and draining lymph node of imiquimod-treated mice (FIG. 9A). Format: in vivo, mouse. As to the method:
(§1) Sphingomyelin species C34:1, C42:2 or C46:2 (20 μg/20 μl ethanol), or vehicle alone (20 μl ethanol) were applied topically to WT or CD1a transgenic mouse ear skin at 48 hour intervals before and during application of Aldara on days 0-5 (20 mg 5% imiquimod cream).
Flow cytometry analysis of ear skin of imiquimod-treated wild-type (WT) and CD1a transgenic mice (CD1a) treated topically with 20 μg sphingomyelin (SM34:1, SM42:2 or SM46:2) dissolved in ethanol, or ethanol alone control, as in FIG. 6. Skin T cell and draining lymph node T cell, frequency was determined. And lymph node CD4 and CD8 T cells assessed for cell surface CD69 expression, which is an indication of T cell activation. Skin and draining LN eosinophil and neutrophil frequency was determined. (N=2-3, 1-way-ANOVA with Dunnett's test, *, P<0.05; **, P<0.01; ***, P<0.001; ****, P<0.0001, mean±SD).

In a further assay the test system is skin cytokines. In words: skin cytokine levels of imiquimod-treated mice, cytometric bead array (FIG. 9B). Format: in vivo, mouse. The note with it: day 7. The protocol: as §1
Skin cytokine levels were assessed on day 7 of imiquimod-treated wild-type (WT) and CD1a transgenic mice (CD1a) treated topically with 20 μg sphingomyelin (SM34:1, SM42:2 or SM46:2) dissolved in ethanol, or ethanol alone control, as in FIG. 6, as measured by cytometric bead array. (N=2-3, 1-way-ANOVA with Dunnett's test, *, P<0.05; **, P<0.01; ***, P<0.001; ****, P<0.0001, mean±SD).

Assay [4] relates to human CD1a transgenic mouse ear skin. In words: imiquimod (Aldara)-induced psoriasiform skin inflammation in CD1a transgenic mice: ear swelling and skin images. Format: in vivo. The note with it: for inflammatory lesions / visible skin inflammation: images day 7, topical 20 μg in ethanol. As to the method:
as §1
Daily measurement of ear swelling induced by imiquimod treatment of wild-type (WT) and CD1a transgenic mice (CD1a) treated topically with 20 μg sphingomyelin (SM34:1, SM42:2 or SM46:2) dissolved in ethanol, or ethanol alone control, as in FIG. 6. (N=2-3, 2-way-ANOVA with Dunnett's test, *, P<0.05; ****, P<0.0001 indicates significance on comparison to “CD1a:EtOH” at day 7, mean±SD).
Representative images of imiquimod-treated wild-type (WT) and CD1a transgenic mouse ear skin (CD1a) treated topically with 20 μg sphingomyelin (SM34:1, SM42:2 or SM46:2) dissolved in ethanol, or ethanol alone control, as in FIG. 6, images taken on day 7. Steroid is mometasone cream.
CD1a is normally expressed on Langerhans cells in the epidermal layer of human skin. […] The lipids of this disclosure block CD1a binding to several T cell clones in vitro and also more broadly block the response of larger populations of polyclonal T cells that recognize CD1a in vivo, leading to decreased inflammation in the skin.
Synthetic long (C46:2 SMΔ17, compound 10), intermediate (C42:2Δ15 SM) and short chain (C34:1 SM) sphingomyelins were compared for inflammatory response. Unlike natural preparations that contain mixtures of short and long chain lipids, these experiments used pure synthetic lipids to titrate CD1a binding and inhibition of immune response. The functional requirements for the delivery vehicle are that it must: 1) dissolve amphipathic lipids, 2) be safe, immunologically unreactive, and non-toxic to skin and 3) create a lipid film that can subsequently penetrate to the epidermal layers, where CD1a is normally located in human skin and in the skin of CD1a transgenic mice. In this experiment, ethanol was chosen which is a chemically simple, safe and effective vehicle; however, other vehicles can also be used.
A widely used model of psoriasiform and dermatitic inflammation induced by Aldara cream, whose active ingredient is a toll-like receptor 7 agonist (imiquimod), was used in this example. Experiments were carried out in which lipid antagonists were applied to the skin of human CD1a transgenic mice in an ethanol carrier, which dried rapidly, leaving a lipid film on the skin. A significant reduction in ear swelling was observed, as a global measure of inflammation and psoriasiform and dermatitic disease when long chain sphingomyelins were applied before (data not shown) or simultaneously with Aldara treatment (FIGS. 7-11).

Another assay has as its system plasma cytokines. In words: plasma cytokine levels of imiquimod-treated mice, cytometric bead array (FIG. 10). Format: in vivo, mouse. The protocol:
as §1
Plasma cytokine levels of the blood of imiquimod-treated wild-type (WT) and CD1a transgenic mice (CD1a) treated topically with 20 μg sphingomyelin (SM34:1, SM42:2 or SM46:2) dissolved in ethanol, or ethanol alone control, as in FIG. 6, as measured by cytometric bead array. (N=2-3, 1-way-ANOVA with Dunnett's test, *, P<0.05; **, P<0.01, mean±SD).

Another assay has as its system CD1a-T cell receptor. The note with it: CD1a tetramer binding in vitro, J. Exp. Med. 2021, cited from earlier work.
Setting [5] is: MC903, hCD1a mice, day 6, 20 μg topical.

CD1a, sequence (P06126 17-327): as the sequence (P06126 17-327) above
CD1a, sequence (P61769 21-119 partner): as the sequence (P61769 21-119 partner) above

For sulfatide, the “complex with CD1a” value on CD1a (sulfatide, co-crystallized, FIG. 4) is on record as “CD1a was co-crystallized with sulfatide; also recorded: forms complex with CD1a”.

Turning to `CCCCCCCCCC/C=C\CCCCCCCCCCCCCC(=O)N[C@@H](COP(=O)([O-])OCC[N+](C)(C)C)[C@H](O)/C=C/CCCCCCCCCCCCC` [Compound 8, 44:2 SM d18:1/26:1 (15Z)], the “inhibition of CD1a protein binding to T cells” value in assay [1] is given as “somewhat improved blocking of C44Δ15 SM as compared to C44Δ17 SM”.

Take `CCCCCCCCCC/C=C\CCCCCCCCCCCCCCCC(=O)N[C@@H](COP(=O)([O-])OCC[N+](C)(C)C)[C@H](O)/C=C/CCCCCCCCCCCCC` [Compound 10, 46:2 SM d18:1/28:1 (17Z)]: in assay [2] (MC903, day 6, 20 μg topical), the “ear thickness vs wild-type mice treated with MC903” value is listed as “significantly reduced” and the “pruritus vs wild-type mice treated with MC903” value is reported as “significantly reduced”. For the same molecule, in assay [2] (setting [5]), the “ear thickness vs vehicle control” value is “significantly reduced” and the “itching/pruritus scores vs vehicle control” value is listed as “significantly reduced”. Further, the cellular inflammation entry in assay [3] (CD1a transgenic mice, topical in ethanol) was “reduced skin swelling and cellular inflammation in vivo”. Further, in assay [3] (lymph node CD4 and CD8 T cells), the “CD69 (surface marker of T cell activation)” value is given as “significant decreases”. Further, in assay [1], the “inhibition of CD1a protein binding to T cells” value is reported as “strongest blockade; also recorded: strongly blocked CD1a binding to human T cell receptors in vitro”. In addition, in the assay on skin cytokines, the “skin IFN-γ” value was “significant decreases”, the “skin IL1α” value is on record as “significant decreases”, the “skin IL17α” value is “significant decreases” and the “skin IL-1β” value is on record as “significant decreases”. Moreover, in the assay on skin cytokines, the “skin IL-6” value is on record as “significant decreases”, the “skin IL-17f” value was “significant decreases”, the “skin IL-22” value is recorded as “significant decreases” and the “skin TNFα” value is listed as “significant decreases”. The “ear swelling / ear thickening” value in assay [4] (imiquimod, CD1a transgenic mice, topical 20 μg in ethanol) was “reduced skin swelling; also recorded: most significantly inhibited”. The “inflammatory lesions / visible skin inflammation” value in assay [4] (imiquimod) is “most significantly inhibited”. The “inflammatory lesions / visible skin inflammation” value in assay [4] (imiquimod, listed as C46:2) was “significantly reduced skin inflammation”. Besides, the “inflammatory lesions / visible skin inflammation” value in assay [4] (imiquimod, listed as C46:2 SM) was “Reduced inflammatory lesions”. In assay [4] (in vivo mouse model, ethanol application), the protection from disease entry is “protection from disease”. In the assay with plasma cytokines, the “plasma IFNβ” value was “significantly reduced”, the “plasma IL17α” value is reported as “significantly reduced” and the “plasma IL-4” value was “significantly reduced”.

With `CCCCCCCC/C=C\CCCCCCCC(=O)N[C@@H](COP(=O)([O-])OCC[N+](C)(C)C)[C@H](O)/C=C/CCCCCCCCCCCCC` [36:2 SM], the “binding mode to CD1a and effect on approach of T cell receptors” value at CD1a is “binds by tucking its phosphocholine group largely inside CD1a so T cell receptors can approach CD1a and are not blocked”. The “CD1a-T cell receptor binding” value with CD1a-T cell receptor is reported as “did not block binding”.

Regarding `CCCCCCCC/C=C\CCCCCCCCCCCCCC(=O)N[C@@H](COP(=O)([O-])OCC[N+](C)(C)C)[C@H](O)/C=C/CCCCCCCCCCCCC` [42:2 SM], at CD1a, the “binding mode to CD1a and effect on approach of T cell receptors” value is reported as “binds CD1a with its phosphocholine headgroup protruding, which blocks approach of T cell receptors”. For the same molecule, the “CD1a-T cell receptor binding” value is recorded as “blocked CD1a-T cell receptor binding” in the assay on CD1a-T cell receptor and “blocked better than the singly unsaturated C42:1 compound” in the assay on CD1a-T cell receptor (listed as C42:2 compound).
